From US5359135A, “Triasulfurone compounds” (priority 1990, dated 1994)

Key:
Assay type in all cases: binding, mouse (Balb/c)
Conditions in all cases: for Cross-reactivity: (triasulfurone conc. for 50% inhibition/analog conc. for 50% inhibition) × 100
MAb 4134-40-1 = assay: competitive ELISA, triasulfurone and analogs with MAb 4134-40-1 (Table 1)
Description: (§1) As defined within the context of this invention, the percentage of cross-reactivity is represented by the following equation: [triasulfurone concentration for 50% inhibition (I50)/concentration of the triasulfurone analogs for 50% inhibition (I50)]×100.
(§2) The I50 value can be determined, for example, by means of a competitive ELISA assay (see Example 8). In that case the I50 value corresponds, for example, to the antigen concentration that leads to a 50% inhibition of the binding of the antibody to the carrier-bound antigen.
(§3) The detection of triasulfurone is effected by means of a two-step competitive ELISA test.
(§4) BSA-conjugated hapten, prepared in accordance with Example 1.3.1 or 1.3.2, in a 50mM sodium carbonate buffer (pH 9.6) (200 ng of BSA-conjugated hapten/100 μl of sodium carbonate buffer) is first of all adsorbed on microtitre plates (for example Dynatech, type M 129A) and incubated overnight at a temperature of 4° C. The plates are then washed five times with PBS buffer enriched with 0.1% (v/v) polysorbate 20 (Tween 20) (PBS Tween).
(§5) The remaining free binding sites of the solid carder material are then blocked by the addition of PBS-BSA in the form of a 1% (w/v) solution. After incubation for two hours at 22° C. the plates are washed again with PBS Tween (0.1%).
(§6) 50 μl of the supernatant of the previously cloned hybridoma cells (in a dilution of 1:2000 or 1:4000) or 50 μl of the previously purified monoclonal antibodies (40-120 ng/ml) are incubated a) with 950 μl of a standard solution containing an increasing amount of triasulfurone or of triasulfurone analogs, b) with triasulfurone-containing water samples or c) with triasulfurone-containing soil extracts. [All dilutions are carried out in PBS Tween (0.1%)].
(§7) After an incubation period of 1 hour at room temperature (22° C.), 200 μl of the antigen/antibody mixture are added to each well in the microtitre plate and the whole batch is incubated for a further one hour. The wells are then washed five times with PBS Tween (0.1%) and charged with 100 μl/well of goat anti-mouse IgG antibody that is conjugated to alkaline phosphatase (dilution 1:1500), and incubated for a period of 1.5 hours.
(§8) After washing again, 150 μl/well of the substrate p-nitrophenyl phosphate dissolved in 1 mg/ml of diethanolamine buffer ([…], pH 9.8, enriched with 0.5 mM MgCl2 ×6H2 O) are added to the wells.
(§9) The intensity of the colour reaction that has occurred is determined at a wavelength of 405 nm. […] All the samples are determined in triplicate.
(§10) In order to determine the amount of triasulfurone present in a sample, first of all a calibration curve is produced (FIG. 1), B/Bo×100 being plotted against the concentration of inhibitor. (Bo represents the absorption capacity measured without the addition of a triasulfurone inhibitor to the antibody, and B is the absorption capacity when triasulfurone inhibitors at various concentrations are added). The I50 value indicates the concentration of the antigen at which the binding of antibody to the solid phase is inhibited by 50%. The I50 value is determined using an ENZFITTER (Leatherbarrow, Elsevier-Biosoft) curve-calculation program based on a four-parameter logistical curve (Raab GM, 1983) and specially adapted to the prevailing conditions. The quantitative determination of triasulfurone in soil or water samples within the context of ELISA is also carried out using the ENZFITTER program, the adaptation of the curve being based on standards that run on any microtitre plate.

MAb 4147-19-4 = assay: competitive ELISA, triasulfurone and analogs with MAb 4147-19-4 (Table 1)
Description: as §1, §2, §3, §4, §5, §6, §7, §8, §9, §10

MAb 4149-1-1 = assay: competitive ELISA, triasulfurone and analogs with MAb 4149-1-1 (Table 1)
Description: as §1, §2, §3, §4, §5, §6, §7, §8, §9, §10

| Compound | I50 (inhibitor concentration that reduces the ELISA signal by 50% in comparison to the control) (MAb 4134-40-1) | Cross-reactivity (MAb 4134-40-1) | I50 (inhibitor concentration that reduces the ELISA signal by 50% in comparison to the control) (MAb 4147-19-4) | Cross-reactivity (MAb 4147-19-4) | I50 (inhibitor concentration that reduces the ELISA signal by 50% in comparison to the control) (MAb 4149-1-1) | Cross-reactivity (MAb 4149-1-1) |
| --- | --- | --- | --- | --- | --- | --- |
| COC(=O)c1ccccc1S(=O)(=O)NC(=O)Nc1nc(OC(F)F)cc(OC(F)F)n1 [I, primisulfurone] | > 1000 ng/mL | < 0.7% | > 1000 ng/mL | < 0.01% | > 1000 ng/mL | < 0.01% |
| COc1nc(C)nc(NC(=O)NS(=O)(=O)c2ccccc2Cl)n1 [M, chlorosulfurone] | > 1000 ng/mL | < 0.7% | 14.3 ng/mL | 0.6% | 420 ng/mL | 0.01% |
| COc1nc(C)nc(NC(=O)NS(=O)(=O)c2ccccc2SCCF)n1 [H] | 30 ng/mL | 24.0% | 0.13 ng/mL | 69.2% | 16.2 ng/mL | 0.3% |
| CCN(CC)C(=O)NS(=O)(=O)c1ccccc1OCCCl [T] | 0.9 ng/mL | 800.0% | 17.6 ng/mL | 0.5% | 0.01 ng/mL | 500.00% |
| CCCOC(=O)NS(=O)(=O)c1ccccc1OCCCl [R] | 2.1 ng/mL | 342.9% | 1.9 ng/mL | 4.7% | 0.02 ng/mL | 250.00% |
| NS(=O)(=O)c1ccccc1OCCO [D] | > 1000 ng/mL | < 0.7% | > 1000 ng/mL | < 0.01% | > 1000 ng/mL | < 0.01% |
| COC(=O)c1ccccc1CS(=O)(=O)NC(=O)Nc1nc(OC)cc(OC)n1 [N, bensulfurone-methyl] | > 1000 ng/mL | < 0.7% | > 1000 ng/mL | < 0.01% | > 1000 ng/mL | < 0.01% |
| COc1nc(C)nc(NC(=O)NS(=O)(=O)c2cc(O)ccc2OCCCl)n1 [A] | 550 ng/mL | 1.3% | 21.4 ng/mL | 0.4% | 0.16 ng/mL | 31.3% |
| NS(=O)(=O)c1ccccc1OCCCl [C] | > 1000 ng/mL | < 0.7% | > 1000 ng/mL | < 0.01% | 1000 ng/mL | < 0.01% |
| COC(=O)c1sccc1S(=O)(=O)NC(=O)Nc1nc(C)nc(OC)n1 [L, thiameturone-methyl] | > 1000 ng/mL | < 0.7% | 14.2 ng/mL | 0.6% | > 1000 ng/mL | < 0.01% |
| COC(=O)c1ccccc1S(=O)(=O)NC(=O)N(C)c1nc(C)nc(OC)n1 [K, tribenurone-methyl] | > 1000 ng/mL | < 0.7% | > 1000 ng/mL | < 0.01% | > 1000 ng/mL | < 0.01% |
| NC(=O)NS(=O)(=O)c1ccccc1OCCCl [S] | 6.0 ng/mL | 120.0% | 2.6 ng/mL | 3.5% | 0.02 ng/mL | 250.00% |
| COc1nc(C)nc(NC(N)=O)n1 [F] | > 1000 ng/mL | < 0.7% | > 1000 ng/mL | < 0.01% | > 1000 ng/mL | < 0.01% |
| CCS(=O)(=O)c1cccnc1S(=O)(=O)NC(=O)Nc1nc(OC)cc(OC)n1 [Q] | > 1000 ng/mL | < 0.7% | > 1000 ng/mL | < 0.01% | > 1000 ng/mL | < 0.01% |
| COc1nc(C)nc(NC(=O)NS(=O)(=O)c2ccc(O)cc2OCCCl)n1 [B] | > 1000 ng/mL | < 0.7% | 85 ng/mL | 0.1% | 0.04 ng/mL | 125.0% |
| COc1cc(OC)nc(NC(=O)NS(=O)(=O)c2ncccc2C(=O)N(C)C)n1 [P, nicosulfurone-methyl] | > 1000 ng/mL | < 0.7% | > 1000 ng/mL | < 0.01% | > 1000 ng/mL | < 0.01% |
| COc1nc(C)nc(NC(=O)NS(=O)(=O)c2ccccc2OCCCl)n1 [triasulfurone, 3-(6-methoxy-4-methyl-1,3,5-triazin-2-yl)-1-[2-(2-chloroethoxy)-phenylsulfonyl]-urea] | 7.2 ng/mL | 100.0% | 0.09 ng/mL | 100.0% | 0.05 ng/mL | 100.0% |
| COC(=O)c1ccccc1S(=O)(=O)NC(=O)Nc1nc(C)nc(OC)n1 [O, methsulfurone-methyl] | > 1000 ng/mL | < 0.7% | 81.5 ng/mL | 0.1% | 600 ng/mL | < 0.01% |
